Data: patent US6635786B2, “Symmetrically disubstituted aromatic compounds and pharmaceutical compositions for inhibiting poly (ADP-ribose) glycohydrolase, and methods for their use” (Guilford Pharmaceuticals, Inc., priority 2001, dated 2003)

biological target: T1, human PARG (Homo sapiens, UniProt Q86W56); experiment: PARG enzymatic assay; format: biochemical; conditions: recombinant GST-fused human PARG (aa 378-976); 3H-labeled poly-(ADP-ribose) substrate; 23° C., 10 min
T1 construct: human PARG from amino acid 378 to 976; GST (glutathione-S-transferase, pGEX-4T1) (N); made in house; host or cells: E. coli BL21
Experimental: The potency of PARG inhibition was determined in a PARG enzymatic assay. For each compound, various doses were used to inhibit the PARG reaction. A dose responsible curve was generated to determine the IC50 value and the concentration (in μM) required to achieve 50% inhibition of the reaction.
The PARG assay consisted of (a) preparation of 3H-labeled radioactive PARG as substrate, (b) purification of recombinant PARG, (c) incubation of the compound with the PARG reaction, (d) separation of the product by absorption to glass fiber filter and quantifying the radioactivity of ADP-ribose by scintillation counting.
3H-labeled poly-(ADP-ribose) was made by mixing labeled and unlabeled PAR. Labeled PAR was synthesized in a reaction of 50 mM Tris-HCl (pH 8.0), 4 mM MgCl2, 0.8 μg/mL activated DNA, 3 μM NAD, NEN 3H-NAD (0.1 mCi/mL), 0.8 μl/mL and 1.4 μl/mL Trevigen PARP. The reaction was incubated at room temperature for 60 min, then dialyzed to remove unincorporated 3H NAD using a MWCO 7000 dialysis cassette in 50 mM Phosphate buffer (pH 7.1) at 5° C. over night. Buffer was changed and dialysis continued for 2 h in the morning. The resulting 3H PAR gave 80,000 DPM/10 μL by scintillation counting.
Unlabeled PAR was synthesized in a reaction that consisted of 50 mM Tris-HCl (pH 8.0), 4 mM MgCl2, 0.8 μg/mL activated DNA, 150 μM NAD, and 1.9 μl/mL Trevigen PARP. The reaction was incubated at room temperature for 60 min, and dialyzed to remove unincorporated NAD in a MWCO 7000 cassette using 50 mM Phosphate buffer (pH 7.1) over night at […]. Buffer was changed and dialysis continued for 2 h in the morning. The OD260 of synthesized PAR is […].
The final PAR mix is made by combining 3H-PAR and PAR synthesized @ 150 μM NAD so that the OD260=0.2-0.3 and the DPM/10 μL=10,000 DPM (SA=0.45 Ci/mmole). EDTA was added to 1 mM.
A cDNA fragment encoding the carboxy terminal part of human PARG from amino acid 378 to 976 was amplified by polymerase chain reaction with human thymus cDNA (Clontech, Palo Alto, Calif.) as a template and a pair of primers with the sequences of 5′-[…]-3′ and 5′-[…]-3′. The primers contained the restriction enzyme sites EcoRI and XhoI. The PCR amplified PARG DNA fragment was digested with EcoRI and XhoI, and then ligated to the same sites in pGEX-4T1 plasmid (acquired from Pharmacia/Upjohn Co., Kalamazoo, Mich.) to create pGEX-PARG by using standard molecular biology procedure. The pGEX-PARG was transformed into E. coli strain BL21 for expressing the recombinant protein that has a glutathione-S-transferase at the amino terminus and fused in frame with PARG at the carboxy terminus. The recombinant protein was expressed and purified using glutathione-sephadex 4B beads according to the standard methodology.
A range of potential PARG inhibitors at final concentrations of 200.0 to 0.1 μM were tested, each point done in triplicate. The compounds were dissolved in DMSO resulting in a final DMSO concentration of 5.0%. The reaction was carried out in a volume of 0.1 mL. PARG enzyme was added to a concentration of 0.05 μL/mL to microtiter plates containing approximately 10 μM 3H-labeled poly-(ADP-ribose) in 50 mM Phosphate buffer (pH 7.1), 5 mM B-mercaptoethanol. The reaction was incubated at 23° C. for 10 min. and was stopped with the addition of TCA to a final concentration of 10%.
Enzyme activity was measured by the disappearance of substrate, [poly-(ADP-ribose) polymer], which was quantified as the loss of glass fiber filter adsorbed radioactivity. The reaction was harvested onto Millipore GFC96 well filter plates using the Packard Cell Harvestor. The plates were washed three times with 70% ethanol, air dried, and the radioactivity was measured by scintillation counting.

T1 sequence (Q86W56 378-976): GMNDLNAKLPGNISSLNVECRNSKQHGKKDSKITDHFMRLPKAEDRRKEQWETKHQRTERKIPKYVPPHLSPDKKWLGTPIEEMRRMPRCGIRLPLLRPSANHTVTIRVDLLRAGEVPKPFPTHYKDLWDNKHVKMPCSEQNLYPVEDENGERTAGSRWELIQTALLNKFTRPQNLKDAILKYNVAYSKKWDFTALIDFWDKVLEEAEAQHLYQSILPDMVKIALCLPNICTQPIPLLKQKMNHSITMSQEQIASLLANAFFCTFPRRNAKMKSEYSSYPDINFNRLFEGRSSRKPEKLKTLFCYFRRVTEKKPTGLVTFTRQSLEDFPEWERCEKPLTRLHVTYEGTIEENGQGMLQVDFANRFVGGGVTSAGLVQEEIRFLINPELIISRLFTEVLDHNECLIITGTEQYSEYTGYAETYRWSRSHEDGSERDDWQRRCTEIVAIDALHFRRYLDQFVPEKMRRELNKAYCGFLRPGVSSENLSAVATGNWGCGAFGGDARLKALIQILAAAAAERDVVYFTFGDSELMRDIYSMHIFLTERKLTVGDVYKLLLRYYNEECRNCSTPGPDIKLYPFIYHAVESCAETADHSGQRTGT

| Compound | IC50 [µM] |
| --- | --- |
| N#CC1CCC(CNC(=O)c2ccc3c(c2)-c2ccc(C(=O)NCC4CCC(C#N)CC4)c4cccc-3c24)CC1 (stereo not shown) [Example 31] | 30.4 |
| NS(=O)(=O)c1ccc(CCNC(=O)c2ccc3c(c2)-c2ccc(C(=O)NCCc4ccc(S(N)(=O)=O)cc4)c4cccc-3c24)cc1 [Example 35, 3,9-Bis[N-[2-(4-sulfamoyl-phenyl)]-ethyl]fluoranthenedicarboxamide] | 15.1 |
| O=C(NCCN1CCCC1)c1cccc2c1S(=O)(=O)c1c(cccc1C(=O)NCCN1CCCC1)O2 [Example 49, 1,9-Bis{N-[2-(pyrrolidin-1-yl)ethyl]carbamoyl}-10,10-dioxo-phenoxathiin] | 9.9 |
| O=C(NCCN1CCCC1)c1ccc2c(c1)-c1ccc(C(=O)NCCN3CCCC3)c3cccc-2c13 [Example 25, 3,9-Bis[N-(2-pyrrolidin-1-yl)-ethyl]fluoranthenedicarboxamide] | 28.6 |
| O=C(OCc1cccc2ccccc12)c1ccc2c(c1)C(Cl)(Cl)c1cc(C(=O)OCc3cccc4ccccc34)ccc1-2 [Example 11, 9,9-Dichloro-9H-fluorene-2,7-dicarboxylic acid bis-(2-naphthalen-1-yl-methyl) ester] | 7.9 |
| O=C(OCCc1ccccc1)c1ccc2c(c1)C(Cl)(Cl)c1cc(C(=O)OCCc3ccccc3)ccc1-2 [Example 5, 9,9-Dichloro-9H-fluorene-2,7-dicarboxylic acid bis-(2-phenyl-ethyl) ester] | 11.2 |
| O=C(NCCc1ccccc1)c1cccc(C(=O)c2cccc(C(=O)NCCc3ccccc3)c2)c1 [Example 21, 3,3′-Bis(N-phenethyl)carbamoyl-benzophenone] | 65.6 |
| 3,9-Bis[3-(1-pyrrolo)propionyl]fluoranthene [Example 55] | 27.3 |
| O=C(NCCc1ccc(Cl)cc1Cl)c1ccc2c(c1)-c1ccc(C(=O)NCCc3ccc(Cl)cc3Cl)c3cccc-2c13 [Example 30, 3,9-Bis[N-[2-(2,4-dichloro-phenyl)]-ethyl]fluoranthenedicarboxamide] | 21.2 |
| COC(=O)c1ccc2c(c1)C(Cl)(Cl)c1cc(C(=O)OC)ccc1-2 [Example 7, 9,9-Dichloro-9H-fluorene-2,7-dicarboxylic acid bis-methyl ester] | 45.6 |
| O=C(NCCCN1CCOCC1)c1ccc2c(c1)-c1ccc(C(=O)NCCCN3CCOCC3)c3cccc-2c13 [Example 27] | 100 |
| O=C(NCCCc1ccccc1)c1cccc2c1S(=O)(=O)c1c(cccc1C(=O)NCCCc1ccccc1)O2 [Example 47, 1,9-Bis-[N-(3-phenpropyl)carbamoyl]-10,10-dioxo-phenoxathiin] | 100 |
| O=C(NCCN1CCCCC1)c1ccc2c(c1)-c1ccc(C(=O)NCCN3CCCCC3)c3cccc-2c13 [Example 24, 3,9-Bis[N-(2-piperidin-1-yl)ethyl]fluoranthenedicarboxamide] | 57 |
| COc1ccc(CCCCOC(=O)c2ccc3c(c2)C(Cl)(Cl)c2cc(C(=O)OCCCCc4ccc(OC)cc4)ccc2-3)cc1 [Example 12, 9,9-Dichloro-9H-fluorene-2,7-dicarboxylic acid bis-[4-(4-methoxy-phenyl)-butyl]ester] | 18.3 |

Further lines, results first:

| IC50 [µM] | Compound |
| --- | --- |
| 31.6 | COc1cc(CCNC(=O)c2cccc3c2S(=O)(=O)c2c(cccc2C(=O)NCCc2cc(OC)cc(OC)c2)O3)cc(OC)c1 [Example 52, 1,9-Bis {N-[2-(3,5-dimethoxyphenyl)ethyl]carbamoyl}-10,10-dioxo-phenoxathiin] |
| 100 | O=C(NCc1cccnc1)c1ccc2c(c1)-c1ccc(C(=O)NCc3cccnc3)c3cccc-2c13 [Example 26, 3,9-Bis[N-(pyridin-3-yl)methyl]fluoranthenedicarboxamide] |
| 40.1 | O=C(NCCCc1ccccc1)c1ccc(C(=O)c2ccc(C(=O)NCCCc3ccccc3)cc2)cc1 [Example 20, 4,4′-Bis(N-phenpropyl)carbamoyl-benzophenone] |
| 10 | O=C(OCc1ccc(O)c(O)c1)c1ccc2c(c1)C(Cl)(Cl)c1cc(C(=O)OCc3ccc(O)c(O)c3)ccc1-2 [Example 6, 9,9-Dichloro-9H-fluorene-2,7-dicarboxylic acid bis-(3,4-dihydroxy-benzyl) ester] |
| 5.7 | O=C(c1cccc2c1S(=O)(=O)c1c(cccc1C(=O)N1CCN(c3ccc(F)cc3)CC1)O2)N1CCN(c2ccc(F)cc2)CC1 [Example 43, 1,9-Bis{N-[4-(4-fluoro-phenyl)-piperazine-carbamoyl]}-10,10-dioxo-phenoxathiin] |
| 27.1 | O=C(OCc1ccc2ccccc2c1)c1ccc2c(c1)C(Cl)(Cl)c1cc(C(=O)OCc3ccc4ccccc4c3)ccc1-2 [Example 10, 9,9-Dichloro-9H-fluorene-2,7-dicarboxylic acid bis-(2-naphthalen-2-yl-methyl) ester] |
| 12 | O=C(c1cccc2c1S(=O)(=O)c1c(cccc1C(=O)N1CCN(c3ccc(C(F)(F)F)cc3)CC1)O2)N1CCN(c2ccc(C(F)(F)F)cc2)CC1 [Example 44, 1,9-Bis-{N-[4-(4-trifluoromethyl-phenyl)-piperazine]carbamoyl}-10,10-dioxo-phenoxathiin] |
| 11.8 | CN(CCCC(=O)c1ccc2c(c1)-c1ccc(C(=O)CCCN(C)c3ccccc3)c3cccc-2c13)c1ccccc1 [Example 53, 3,9-Bis[4-(methylphenylamino)butyryl]fluoranthene] |
| 75 | O=C(NCc1ccccc1)c1ccc(C(=O)c2ccc(C(=O)NCc3ccccc3)cc2)cc1 [Example 19, 4,4′-Bis(N-benzyl)carbamoyl-benzophenone] |
| 21.1 | COc1ccccc1CCNC(=O)c1ccc2c(c1)-c1ccc(C(=O)NCCc3ccccc3OC)c3cccc-2c13 [Example 32, 3,9-Bis{N-[2-(2-methoxy-phenyl)]-ethyl}fluoranthenedicarboxamide] |
| 17.1 | O=C(OCCc1cccc2ccccc12)c1ccc2c(c1)C(Cl)(Cl)c1cc(C(=O)OCCc3cccc4ccccc34)ccc1-2 [Example 8, 9,9-Dichloro-9H-fluorene-2,7-dicarboxylic acid bis-(2-naphthalen-1-yl-ethyl) ester] |
| 9.6 | O=C(NCCCN1CCOCC1)c1cccc2c1S(=O)(=O)c1c(cccc1C(=O)NCCCN1CCOCC1)O2 [Example 51, 1,9-Bis{N-[3-(morpholin-4-yl)-propyl]carbamoyl}-10,10-dioxo-phenoxathiin] |
| 17 | O=C(CCCl)c1ccc2oc3ccc(C(=O)CCCl)cc3c(=O)c2c1 [Example 38, 2,7-Bis-(3-chloro-propionyl)-xanthen-9-one] |
| 45.5 | COc1cccc(CCNC(=O)c2ccc3c(c2)-c2ccc(C(=O)NCCc4cccc(OC)c4)c4cccc-3c24)c1 [Example 33, 3,9-Bis{N-[2-(3-methoxy-phenyl)]-ethyl}fluoranthenedicarboxamide] |
| 18.9 | O=C(OCc1ccc(F)cc1)c1ccc2c(c1)C(Cl)(Cl)c1cc(C(=O)OCc3ccc(F)cc3)ccc1-2 [Example 4, 9,9-Dichloro-9H-fluorene-2,7-dicarboxylic acid bis-(p-fluorobenzyl) ester] |
| 28.4 | O=C(c1cccc2c1S(=O)(=O)c1c(cccc1C(=O)N1CCN(c3ccncc3)CC1)O2)N1CCN(c2ccncc2)CC1 [Example 46, 1,9-Bis{N-[4-(pyridin-4-yl)-piperazine]carbamoyl}-10,10-dioxo-phenoxathiin] |
| 106 | O=C(OCc1ccccn1)c1ccc2c(c1)-c1ccc(C(=O)OCc3ccccn3)c3cccc-2c13 [Example 36, 3,9-Bis(2-pyridinylmethyl)fluoranthenedicarboxylate] |
